In US8497365B2, “Cyclodextrin-based polymers for therapeutics delivery” (priority 2007, dated 2013):
Values after ≈ are worked out from the molar mass of the structure shown. Like-named read-outs stand apart in the source and are kept apart here.

Assays:
[1] = tested on: human ovarian carcinoma cell line A2780; experiment: Cytotoxicity of etoposide derivatives, MTS assay; type: cell-based; conditions: A2780, 72 h
Description: The cytotoxicity of drug-polymer conjugates and linker-drug precursors was determined in the human ovarian carcinoma cell line A2780. […] 10,000 cells per well were seeded in a 96-well plate and incubated at 37° C. for 24 hours, at which time drug was added to triplicate wells at various concentrations. After 72 hours of incubation at 37° C. in the presence of drug, cells were washed with PBS, incubated for 1 hour with an MTS solution, and analyzed according to manufacturer's instructions (CellTiter 96 one solution cell proliferation assay, Promega, Madison, Wis.).

[2] = tested on: HT-29 colorectal carcinoma xenografts; experiment: Efficacy study in subcutaneous HT29 xenograft; conditions: for Deaths TR (treatment related) / Regressions CR (complete regression) / Regressions PR (partial regression) / Regressions TFS (tumor-free survivor): n=10; for Median TTE (time to endpoint): endpoint 1000 mm^3 or Day 90
Description: Efficacy was evaluated in nude mice bearing subcutaneously implanted HT-29 colorectal carcinoma xenografts. HRLN female nu/nu mice were set up with 1 mm^3 HT-29 tumor fragments s.c. in the flank. The pair match was then done when the tumors reached an average size of 80 to 120 mg and was followed by beginning treatment. Dosing solutions were prepared daily and body weight was determined bi-weekly until the end of the study. Caliper measurements were taken bi-weekly to the end of the study. Animals were monitored individually, and the endpoint of the experiment was a tumor volume of 1 g or 90 days, whichever came first. […] When the endpoint was reached, the animals were euthanized.
Tubulysin A was administered as a solution in 10% DMSO:1% Tween 80:89% Saline. The vehicle was 10% DMSO:1% Tween 80:89% Saline.

[3] = tested on: NCI-H1299 (lung) cells
[4] = neutral pH
[5] = for Day of mean BW Nadir / # of TR (treatment related deaths) / Avg. Day of TR: qwkx3 iv
Description: HRLN female nu/nu mice were set up and dosing solutions were prepared. Body weight was determined biweekly until the end of the study. The endpoint was where mean weight loss exceeded 20% or >10% of animals in a group died, dosing was immediately stopped. Moribund animals were euthanized following PRC SOP. All animals were euthanized 14 days post final dose.

[6] = tested on: HT-29 (colon) cells; experiment: Antiproliferative activity in vitro; type: cell-based, human
[7] = tested on: A2780 (ovarian) cells

With `COc1cc([C@@H]2c3cc4c(cc3[C@@H](O[C@@H]3O[C@@H]5CO[C@@H](C)O[C@H]5[C@H](O)[C@H]3O)[C@H]3COC(=O)[C@H]23)OCO4)cc(OC)c1O` [etoposide] the IC50 [1] was 200 nM.

In the case of `CC[C@H](C)[C@H](NC(=O)[C@H]1CCCCN1C)C(=O)N(COC(=O)CC(C)C)[C@H](C[C@@H](OC(C)=O)c1nc(C(=O)N[C@@H](Cc2ccc(O)cc2)C[C@H](C)C(=O)O)cs1)C(C)C` [Tubulysin A, tubulysin A], the “% TGD” value ([2]; 0.1 mg/kg qwkx3 i.v. (Group 2)) is reported as 2.42%, the “BW Nadir (%)” value ([2]; 0.1 mg/kg qwkx3 i.v. (Group 2)) is reported as −26.80% and the “TC (tumor growth delay, T−C)” value ([2]; 0.1 mg/kg qwkx3 i.v. (Group 2)) is reported as 0.81 days. For the same molecule, the “Deaths TR (treatment related)” value ([2]; 0.1 mg/kg qwkx3 i.v. (Group 2)) was 5, the “Regressions CR (complete regression)” value ([2]; 0.1 mg/kg qwkx3 i.v. (Group 2)) was 0 and the “Regressions PR (partial regression)” value ([2]; 0.1 mg/kg qwkx3 i.v. (Group 2)) was 0. The “Regressions TFS (tumor-free survivor)” value ([2]; 0.1 mg/kg qwkx3 i.v. (Group 2)) was 0, the “Median TTE (time to endpoint)” value ([2]; 0.1 mg/kg qwkx3 i.v. (Group 2)) was 34.46 and the mortality ([2]; 0.1 mg/kg qwkx3 i.v., HT-29 xenograft mice) was 50%. The “maximum body weight loss” value ([2]; 0.1 mg/kg qwkx3 i.v., on day 26) was 26.8%, the “toxicity of the free drug” value ([2]; even at 0.1 mg/kg) was “severely toxic” and the IC50 [3] was 2.8 nM. For the same molecule, the solubility in water [4] was 100 µg/mL (≈ 118 µM), the “Day of mean BW Nadir” value ([5]; 0.05 mg/kg) was 5 days and the “# of TR (treatment related deaths)” value ([5]; 0.05 mg/kg, n=5) was 0. The “Avg. Day of TR” value ([5]; 0.3 mg/kg) was 9, the “Day of mean BW Nadir” value ([5]; 0.3 mg/kg) was 8 days and the “# of TR (treatment related deaths)” value ([5]; 0.3 mg/kg, n=4) was 4. The “Avg. Day of TR” value ([5]; 1 mg/kg) was 4, the “Day of mean BW Nadir” value ([5]; 1 mg/kg) was 3 days and the “# of TR (treatment related deaths)” value ([5]; 1 mg/kg, n=4) was 4. For the same molecule, the “Avg. Day of TR” value ([5]; 3 mg/kg) was 3, the “Day of mean BW Nadir” value ([5]; 3 mg/kg) was 2 days and the “# of TR (treatment related deaths)” value ([5]; 3 mg/kg, n=4) was 4. The “maximum tolerated dose (MTD)” value ([5]; nude mice, conjugate in Tubulysin equivalents) was 0.05 mg/kg, the IC50 [6] was 1.3 nM and the IC50 [7] was 2.4 nM.

With `CC[C@]1(O)C[C@@H]2CN(CCc3c([nH]c4ccccc34)[C@@](C(=O)OC)(c3cc4c(cc3OC)N(C)[C@H]3[C@@](O)(C(=O)OC)[C@H](OC(C)=O)[C@]5(CC)C=CCN6CC[C@]43[C@@H]65)C2)C1` [Vinblastine] the “antitumor effectiveness compared to CDP-PEG-SS-Tubulysin” value ([2]; 4 mg/kg qwkx3 i.v.) was “significantly less effective”, the “% TGD” value ([2]; 4 mg/kg qwkx3 i.v. (Group 3)) was 33.89% and the “BW Nadir (%)” value ([2]; 4 mg/kg qwkx3 i.v. (Group 3)) was −3.60%. For the same molecule, the “Statistical Significance vs G1 (vehicle)” value ([2]; 4 mg/kg qwkx3 i.v. (Group 3)) was “** (** = 0.001< P < 0.01)”, the “Statistical Significance vs G4 (CDP-S-S-TUB qwkx3)” value ([2]; 4 mg/kg qwkx3 i.v. (Group 3)) was “*** (*** = P < 0.001)” and the “TC (tumor growth delay, T−C)” value ([2]; 4 mg/kg qwkx3 i.v. (Group 3)) was 11.4 days. For the same molecule, the “Deaths TR (treatment related)” value ([2]; 4 mg/kg qwkx3 i.v. (Group 3)) was 0, the “Regressions CR (complete regression)” value ([2]; 4 mg/kg qwkx3 i.v. (Group 3)) was 0 and the “Regressions PR (partial regression)” value ([2]; 4 mg/kg qwkx3 i.v. (Group 3)) was 0. The “Regressions TFS (tumor-free survivor)” value ([2]; 4 mg/kg qwkx3 i.v. (Group 3)) was 0 and the “Median TTE (time to endpoint)” value ([2]; 4 mg/kg qwkx3 i.v. (Group 3)) was 45.05.
